Data: US20120220581A1, “IMIDAZO[1,2-b]PYRIDAZINE DERIVATIVES AND THEIR USE AS PDE10 INHIBITORS” (Janssen-Cilag, S.A., priority 2009, published 2012)

Columns and labels:
[1] = molecular target: T1, Rat recombinant PDE10A (rPDE10A2) (Rattus norvegicus, UniProt Q9QYJ6); assay: In vitro assay PDE10A (SPA, 3H-cAMP); type: biochemical; conditions: pIC50 corresponds to the −log IC50 expressed in mol/L; read-out: PDE10A2 pIC50 (converted)
T1 construct: inferred from the Ni metal chelate purification; made in house; host or cells: Sf9 insect cells (baculovirus)
T1 sequence (Q9QYJ6 1-794): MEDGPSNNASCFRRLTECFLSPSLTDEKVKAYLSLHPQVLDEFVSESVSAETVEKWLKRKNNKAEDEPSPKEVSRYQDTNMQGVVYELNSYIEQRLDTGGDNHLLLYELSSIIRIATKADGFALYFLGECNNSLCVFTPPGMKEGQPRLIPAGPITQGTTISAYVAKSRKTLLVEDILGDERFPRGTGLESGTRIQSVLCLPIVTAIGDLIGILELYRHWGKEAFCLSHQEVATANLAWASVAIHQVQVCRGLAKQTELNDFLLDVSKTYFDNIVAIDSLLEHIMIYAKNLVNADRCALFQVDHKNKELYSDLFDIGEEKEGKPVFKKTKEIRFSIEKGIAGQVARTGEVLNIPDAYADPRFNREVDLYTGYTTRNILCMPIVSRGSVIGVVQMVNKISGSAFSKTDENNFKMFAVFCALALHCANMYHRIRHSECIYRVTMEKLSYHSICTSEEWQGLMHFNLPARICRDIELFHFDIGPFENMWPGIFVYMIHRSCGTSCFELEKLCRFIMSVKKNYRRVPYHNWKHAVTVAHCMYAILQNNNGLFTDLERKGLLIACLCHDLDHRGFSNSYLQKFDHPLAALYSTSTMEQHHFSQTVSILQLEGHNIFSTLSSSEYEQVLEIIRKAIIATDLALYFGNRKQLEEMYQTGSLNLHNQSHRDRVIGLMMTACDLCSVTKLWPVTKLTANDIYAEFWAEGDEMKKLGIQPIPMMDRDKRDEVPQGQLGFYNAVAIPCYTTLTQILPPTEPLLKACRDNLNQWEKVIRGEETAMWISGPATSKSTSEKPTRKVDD
Protocol: Rat recombinant PDE10A (rPDE10A2) was expressed in Sf9 cells using a recombinant rPDE10A baculovirus construct. Cells were harvested after 48 h of infection and the rPDE10A protein was purified by metal chelate chromatography on Ni-sepharose 6FF. Tested compounds were dissolved and diluted in 100% DMSO to a concentration 100 fold of the final concentration in the assay. Compound dilutions (0.4 μl) were added in 384 well plates to 20 μl of incubation buffer (50 mM Tris pH 7.8, 8.3 mM MgCl2, 1.7 mM EGTA). 10 μl of rPDE10A enzyme in incubation buffer was added and the reaction was started by addition of 10 μl substrate to a final concentration of 60 nM cAMP and 0.008 μCi ^3H-cAMP. The reaction was incubated for 60 minutes at room temperature. […] After sedimentation of the beads during 30 minutes the radioactivity was measured in a Perkin Elmer Topcount scintillation counter and results were expressed as cpm. For blanc values the enzyme was omitted from the reaction and replaced by incubation buffer. Control values were obtained by addition of a final concentration of 1% DMSO instead of compound. The same assay principle is applied for the measurement of the affinity of the compound for other members of the PDE family with appropriate modifications in incubation buffer, substrate concentration, incubation time and stop solution.

[2] = tested on: apomorphine-induced stereotypy in rats; assay: Apomorphine-induced stereotypy in rats (APO); type: in vivo; conditions: Rattus norvegicus, n.d.: found not active at threshold dose 2.5 mg/kg or 10 mg/kg (a)
Protocol: Apomorphine (1.0 mg/kg, i.v.)-induced stereotypy (compulsive sniffing, licking, chewing) was scored every 5 min over the first hour after injection of apomorphine, following a 1 hour interval pre-treatment with the test compound. The score system was: (3) pronounced, (2) moderate, (1) slight, and (0) absent.

COC(C)(C)Cc1ccc(-c2c(C3CC3)nc3c(N4CCOCC4)ccnn23)cn1 [compound 45, 2-cyclopropyl-3-[6-(2-methoxy-2-methylpropyl)-3-pyridinyl]-8-(4-morpholinyl)-imidazo[1,2-b]pyridazine]
IC50 [1]: 50.1 nM
ED50 ([2]; not further tested): > 2.5 mg/kg

c1cc(-c2ccnn3c(-c4ccc(N5CCOCC5)nc4)c(C4CC4)nc23)ccn1 [compound 46, 2-cyclopropyl-3-[6-(4-morpholinyl)-3-pyridinyl]-8-(4-pyridinyl)-imidazo[1,2-b]pyridazine]
IC50 [1]: 17.4 nM
ED50 ([2]; not further tested): > 2.5 mg/kg

COC(C)(C)Cc1ccc(-c2c(C)nc3c(N4CCOCC4)cc(C)nn23)cn1 [compound 47, 3-[6-(2-methoxy-2-methylpropyl)-3-pyridinyl]-2,6-dimethyl-8-(4-morpholinyl)-imidazo[1,2-b]pyridazine]
IC50 [1]: 91.2 nM
ED50 ([2]; not further tested): > 2.5 mg/kg

COCCOc1ccc(-c2c(C)nc3c(-c4ccncc4)cc(C)nn23)cn1 [compound 49, 3-[6-(2-methoxyethoxy)-3-pyridinyl]-2,6-dimethyl-8-(4-pyridinyl)-imidazo[1,2-b]pyridazine]
IC50 [1]: 209 nM
ED50 ([2]; not further tested): > 2.5 mg/kg

COC(C)(C)Cc1ccc(-c2cnc3c(N4CCOCC4)ccnn23)cn1 [compound 51, 3-[6-(2-methoxy-2-methylpropyl)-3-pyridinyl]-8-(4-morpholinyl)-imidazo[1,2-b]pyridazine]
IC50 [1]: 105 nM
ED50 ([2]; not further tested): > 2.5 mg/kg

COCCOc1ccc(-c2cnc3c(N4CCOCC4)ccnn23)cn1 [compound 52, 3-[6-(2-methoxyethoxy)-3-pyridinyl]-8-(4-morpholinyl)-imidazo[1,2-b]pyridazine]
IC50 [1]: 468 nM
ED50 ([2]; not further tested): > 2.5 mg/kg

COC(C)(C)Cc1ccc(-c2c(C3CC3)nc3c(N4CCOCC4)cc(C)nn23)cn1 [compound 53, 2-cyclopropyl-3-[6-(2-methoxy-2-methylpropyl)-3-pyridinyl]-6-methyl-8-(4-morpholinyl)-imidazo[1,2-b]pyridazine]
IC50 [1]: 214 nM
ED50 ([2]; not further tested): > 2.5 mg/kg

COC(C)(C)Cc1ccc(-c2c(C3CC3)nc3c(-c4ccncc4)cc(C)nn23)cn1 [compound 55, 2-cyclopropyl-3-[6-(2-methoxy-2-methylpropyl)-3-pyridinyl]-6-methyl-8-(4-pyridinyl)-imidazo[1,2-b]pyridazine]
IC50 [1]: 38 nM
ED50 ([2]; not further tested): > 2.5 mg/kg

COCCc1ccc(-c2c(C3CC3)nc3c(-c4ccncc4)cc(C)nn23)cn1 [compound 56, 2-cyclopropyl-3-[6-(2-methoxyethyl)-3-pyridinyl]-6-methyl-8-(4-pyridinyl)-imidazo[1,2-b]pyridazine]
IC50 [1]: 51.3 nM
ED50 ([2]; not further tested): > 2.5 mg/kg

Cc1nc2c(-c3ccncc3)cc(C3CC3)nn2c1-c1ccc(N2CCOCC2)nc1 [compound 58, 6-cyclopropyl-2-methyl-3-[6-(4-morpholinyl)-3-pyridinyl]-8-(4-pyridinyl)-imidazo[1,2-b]pyridazine]
IC50 [1]: 186 nM
ED50 ([2]; not further tested): > 2.5 mg/kg

COCCOc1ccc(-c2c(C)nc3c(-c4ccncc4)cc(C4CC4)nn23)cn1 [compound 59, 6-cyclopropyl-3-[6-(2-methoxyethoxy)-3-pyridinyl]-2-methyl-8-(4-pyridinyl)-imidazo[1,2-b]pyridazine]
IC50 [1]: 234 nM
ED50 ([2]; not further tested): > 2.5 mg/kg

COC(C)(C)Cc1ccc(-c2cnc3c(-c4ccncc4)ccnn23)cn1 [compound 60, 3-[6-(2-methoxy-2-methylpropyl)-3-pyridinyl]-8-(4-pyridinyl)-imidazo[1,2-b]pyridazine]
IC50 [1]: 191 nM
ED50 ([2]; not further tested): > 2.5 mg/kg

COCCc1ccc(-c2c(C)nc3c(N4CCOCC4)cc(C(F)(F)F)nn23)cn1 [compound 64, 3-[6-(2-methoxyethyl)-3-pyridinyl]-2-methyl-8-(4-morpholinyl)-6-(trifluoromethyl)-imidazo[1,2-b]pyridazine]
IC50 [1]: 479 nM
ED50 ([2]; po, * not soluble, tested orally as a suspension): > 2.5 mg/kg

COCCOc1ccc(-c2c(C)nc3c(N4CCOCC4)cc(C)nn23)cn1 [compound 69, 3-[6-(2-methoxyethoxy)-3-pyridinyl]-2,6-dimethyl-8-(4-morpholinyl)-imidazo[1,2-b]pyridazine]
IC50 [1]: 324 nM
ED50 ([2]; not further tested): > 2.5 mg/kg

Cc1cc(-c2ccncc2)c2nc(C)c(-c3ccc(N4CCOCC4)nc3)n2n1 [compound 70, 2,6-dimethyl-3-[6-(4-morpholinyl)-3-pyridinyl]-8-(4-pyridinyl)-imidazo[1,2-b]pyridazine]
IC50 [1]: 126 nM
ED50 ([2]; not further tested): > 2.5 mg/kg

COCCOc1ccc(-c2c(C3CC3)nc3c(N4CCOCC4)ccnn23)cn1 [compound 73, 2-cyclopropyl-3-[6-(2-methoxyethoxy)-3-pyridinyl]-8-(4-morpholinyl)-imidazo[1,2-b]pyridazine]
IC50 [1]: 97.7 nM
ED50 ([2]; not further tested): > 2.5 mg/kg

Cc1nc2c(N3CCOCC3)ccnn2c1-c1ccc(CCOC(C)C)nc1 [compound 76, 2-methyl-3-[6-[2-(1-methylethoxy)ethyl]-3-pyridinyl]-8-(4-morpholinyl)-imidazo[1,2-b]pyridazine]
IC50 [1]: 50.1 nM
ED50 ([2]; not further tested): > 2.5 mg/kg

Cc1nc2c(N3CCOCC3)ccnn2c1-c1ccc(CCN2CCCC2)nc1 [compound 77, 2-methyl-8-(4-morpholinyl)-3-[6-[2-(1-pyrrolidinyl)ethyl]-3-pyridinyl]-imidazo[1,2-b]pyridazine]
IC50 [1]: 129 nM
ED50 ([2]; not further tested): > 2.5 mg/kg

Cc1nc2c(N3CCOCC3)cc(C3CC3)nn2c1-c1ccc(C2CCOCC2)nc1 [compound 78, 6-cyclopropyl-2-methyl-8-(4-morpholinyl)-3-[6-(tetrahydro-2H-pyran-4-yl)-3-pyridinyl]-imidazo[1,2-b]pyridazine]
IC50 [1]: 123 nM
ED50 ([2]; not further tested): > 2.5 mg/kg

Cc1cc(N2CCOCC2)c2nc(C3CC3)c(-c3ccc(C4CCOCC4)nc3)n2n1 [compound 79, 2-cyclopropyl-6-methyl-8-(4-morpholinyl)-3-[6-(tetrahydro-2H-pyran-4-yl)-3-pyridinyl]-imidazo[1,2-b]pyridazine]
IC50 [1]: 263 nM
ED50 ([2]; not further tested): > 2.5 mg/kg

Cc1cc(-c2ccncc2)c2nc(C3CC3)c(-c3ccc(C4CCOCC4)nc3)n2n1 [compound 80, 2-cyclopropyl-6-methyl-8-(4-pyridinyl)-3-[6-(tetrahydro-2H-pyran-4-yl)-3-pyridinyl]-imidazo[1,2-b]pyridazine]
IC50 [1]: 44.7 nM
ED50 ([2]; not further tested): > 2.5 mg/kg

Cc1nc2c(-c3ccncc3)cc(C3CC3)nn2c1-c1ccc(C2CCOCC2)nc1 [compound 81, 6-cyclopropyl-2-methyl-8-(4-pyridinyl)-3-[6-(tetrahydro-2H-pyran-4-yl)-3-pyridinyl]-imidazo[1,2-b]pyridazine]
IC50 [1]: 195 nM
ED50 ([2]; not further tested): > 2.5 mg/kg

c1cc(N2CCOCC2)c2ncc(-c3ccc(C4CCOCC4)nc3)n2n1 [compound 82, 8-(4-morpholinyl)-3-[6-(tetrahydro-2H-pyran-4-yl)-3-pyridinyl]-imidazo[1,2-b]pyridazine]
IC50 [1]: 145 nM
ED50 ([2]; not further tested): > 2.5 mg/kg

CCc1ccc(-c2c(C)nc3c(-c4ccncc4)ccnn23)cn1 [compound 83, 3-(6-ethyl-3-pyridinyl)-2-methyl-8-(4-pyridinyl)-imidazo[1,2-b]pyridazine]
IC50 [1]: 51.3 nM
ED50 ([2]; not further tested): > 2.5 mg/kg

CCc1ccc(-c2c(C)nc3c(-c4ccncc4)cc(C4CC4)nn23)cn1 [compound 86, 6-cyclopropyl-3-(6-ethyl-3-pyridinyl)-2-methyl-8-(4-pyridinyl)-imidazo[1,2-b]pyridazine]
IC50 [1]: 263 nM
ED50 ([2]; not further tested): > 2.5 mg/kg

CCc1ccc(-c2c(C3CC3)nc3c(-c4ccncc4)ccnn23)cn1 [compound 87, 2-cyclopropyl-3-(6-ethyl-3-pyridinyl)-8-(4-pyridinyl)-imidazo[1,2-b]pyridazine]
IC50 [1]: 21.9 nM
ED50 ([2]; not further tested): > 2.5 mg/kg
